The results in this text go back to patent publication US20030232986A1, “Inhibitors of caspases” (Vertex Pharmaceuticals Incorporated, priority 1998, published 2003).

For experiment [1], the system named is Human whole blood, IL-1β production. As to the kind of experiment: Whole blood assay for IL-1β production. Format: cell-based. The conditions noted are these: LPS-stimulated whole blood, IL-1β by ELISA. How it is done:
The whole blood assay is a simple method for measuring the production of IL-1β (or other cytokines) and the activity of potential inhibitors. The complexity of this assay system, with its full complement of lymphoid and inflammatory cell types, spectrum of plasma proteins and red blood cells is an ideal in vitro representation of human in vivo physiologic conditions.
Set incubator or water bath at 30° C. Aliquot 0.25 ml of blood into 1.5 ml eppendorf tubes. Note: be sure to invert the whole blood sample tubes after every two aliquots. Differences in replicates may result if the cells sediment and are not uniformly suspended. Use of a positive displacement pipette will also minimize differences between replicate aliquots.
Prepare drug dilutions in sterile pyrogen-free saline by serial dilution. A dilution series which brackets the apparent Ki for a test compound determined in an ICE inhibition assay is generally used for the primary compound screen. For extremely hydrophobic compounds, prepare compound dilutions in fresh plasma obtained from the same blood donor or in PBS-containing 5% DMSO to enhance solubility.
Add 25 μl test compound dilution or vehicle control and gently mix the sample. Then add 5.0 μl LPS solution (250 ng/ml stocked prepared fresh: 5.0 ng/ml final concentration LPS), and mix again. Incubate the tubes at […] in a water bath for 16-18 hr with occasional mixing. Alternatively, the tubes can be placed in a rotator set at 4 rpm for the same incubation period. This assay should be set up in duplicate or triplicate with the following controls: negative control—no LPS; positive control—no test inhibitor; vehicle control—the highest concentration of DMSO or compound solvent used in the experiment. Additional saline is added to all control tubes to normalize volumes for both control and experimental whole blood test samples.
After the incubation period, whole blood samples are centrifuged for 10 minutes at ^˜2000 rpm in the microfuge, plasma is transferred to a fresh microfuge tube and centrifuged at 1000×g to pellet residual platelets if necessary. Plasma samples may be stored frozen at −70° C. prior to assay for cytokine levels by ELISA.
R & D Systems (614 McKinley Place N.E. Minneapolis, Minn. 55413) Quantikine kits may be used for measurement of IL-1β and TNF-α. The assays are performed according to the manufacture's directions. IL-1β levels of ^˜1-5 ng/ml in positive controls among a range of individuals may be observed. A 1:200 dilution of plasma for all samples is usually sufficient for experiments for ELISA results to fall on the linear range of the ELISA standard curves. It may be necessary to optimize standard dilutions if you observe differences in the whole blood assay. Nerad, J. L. et al., J. Leukocyte Biol., 52, pp. 687-692 (1992).

Experiment [2] deals with T1, Caspase-1 (Homo sapiens, UniProt P29466).
T1 sequence (P29466 120-297 limits assumed): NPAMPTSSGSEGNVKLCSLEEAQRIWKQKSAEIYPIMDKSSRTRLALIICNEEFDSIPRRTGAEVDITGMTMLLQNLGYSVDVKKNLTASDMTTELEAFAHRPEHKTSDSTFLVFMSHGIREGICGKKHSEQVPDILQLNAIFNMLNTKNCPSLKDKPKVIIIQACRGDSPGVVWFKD
T1 sequence (P29466 317-404 limits assumed): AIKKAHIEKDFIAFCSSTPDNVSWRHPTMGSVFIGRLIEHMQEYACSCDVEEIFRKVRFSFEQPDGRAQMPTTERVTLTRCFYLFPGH
Briefly: Caspase-1 enzyme inhibition (Ki). The class given is biochemical. A digest of the protocol:
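Ki obtained by fitting rate versus inhibitor concentration to the Morrison tight-binding equation for competitive inhibitors, with pNA release read at 405 nm at 37 °C. Substrate Suc-YVAD-pNA (80 μM final) added after 15 min enzyme–inhibitor preincubation in Tris pH 7.5 buffer with DTT and CHAPS.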

Experiment [3] has as its system Human Peripheral Blood Mononuclear Cells (PBMC), mature IL-1β. As to the kind of experiment: PBMC cell assay: IL-1β assay with human peripheral blood mononuclear cells. The class given is cell-based. Particulars: LPS-stimulated human PBMC, mature IL-1β in supernatant by ELISA. An excerpt: IL-1β Assay with a Mixed Population of Human Peripheral Blood Mononuclear Cells (PBMC) or Enriched Adherent Mononuclear Cells
Processing of pre-IL-1β by ICE can be measured in cell culture using a variety of cell sources. Human PBMC obtained from healthy donors provides a mixed population of lymphocyte subtypes and mononuclear cells that produce a spectrum of interleukins and cytokines in response to many classes of physiological stimulators. Adherent mononuclear cells from PBMC provides an enriched source of normal monocytes for selective studies of cytokine production by activated cells.
An initial dilution series of test compound in DMSO or ethanol is prepared, with a subsequent dilution into RPMI-10% FBS media (containing 2 mM L-glutamine, 10 mM HEPES, 50 U and 50 ug/ml pen/strep) respectively to yield drugs at 4× the final test concentration containing 0.4% DMSO or 0.4% ethanol. The final concentration of DMSO is 0.1% for all drug dilutions. A concentration titration which brackets the apparent Ki for a test compound determined in an ICE inhibition assay is generally used for the primary compound screen.
Generally 5-6 compound dilutions are tested and the cellular component of the assay is performed in duplicate, with duplicate ELISA determinations on each cell culture supernatant.
Buffy coat cells isolated from one pint human blood (yielding 40-45 ml final volume plasma plus cells) are diluted with media to 80 ml and LeukoPREP separation tubes (Becton Dickinson) are each overlaid with 10 ml of cell suspension. After 15 min centrifugation at 1500-1800×g, the plasma/media layer is aspirated and then the mononuclear cell layer is collected with a Pasteur pipette and transferred to a 15 ml conical centrifuge tube (Corning). Media is added to bring the volume to 15 ml, gently mix the cells by inversion and centrifuge at 300×g for 15 min. The PBMC pellet is resuspended in a small volume of media, the cells are counted and adjusted to 6×10^6 cells/ml.
For the cellular assay, 1.0 ml of the cell suspension is added to each well of a 24-well flat bottom tissue culture plate (Corning), 0.5 ml test compound dilution and 0.5 ml LPS solution (Sigma #L-3012; 20 ng/ml solution prepared in complete RPMI media; final LPS concentration 5 ng/ml). The 0.5 ml additions of test compound and LPS are usually sufficient to mix the contents of the wells. Three control mixtures are run per experiment, with either LPS alone, solvent vehicle control, and/or additional media to adjust the final culture volume to 2.0 ml. The cell cultures are incubated for 16-18 hr at 37° C. in the presence of 5% CO2.
At the end of the incubation period, cells are harvested and transferred to 15 ml conical centrifuge tubes. After centrifugation for 10 min at 200×g, supernatants are harvested and transferred to 1.5 ml Eppendorf tubes. It may be noted that the cell pellet may be utilized for a biochemical evaluation of pre-IL-1β and/or mature IL-1β content in cytosol extracts by Western blotting or ELISA with pre-IL-1β specific antisera.
PBMC are isolated and prepared as described above. Media (1.0 ml) is first added to wells followed by 0.5 ml of the PBMC suspension. After a one hour incubation, plates are gently shaken and nonadherent cells aspirated from each well. Wells are then gently washed three times with 1.0 ml of media and final resuspended in 1.0 ml media. The enrichment for adherent cells generally yields 2.5-3.0×10^5 cells per well. The addition of test compounds, LPS, cell incubation conditions and processing of supernatants proceeds as described above.
Quantikine kits (R&D Systems) may be used for the measurement of mature IL-1β. Assays are performed according to the manufacturer's directions. Mature IL-1β levels of about 1-3 ng/ml in both PBMC and adherent mononuclear cell positive controls are observed. […]

The mark [4] stands for this setting: substrate Suc-YVAD-pNA 80 μM, 37° C., pH 7.5.

Like-named read-outs stand apart in the source and are kept apart here. Where a SMILES comes first, the peptide text is derived from it. [ ]: non-standard residue; d: D form. The star is where a group is joined. 4Abz = Nc1ccc(C(=O)O)cc1; Bz = O=C(c1ccccc1)*

Regarding `CC(=O)Nc1ccc(C(=O)N[C@H](C(=O)N2CCC[C@H]2C(=O)N[C@H](C=O)CC(=O)O)C(C)C)cc1` [Example 5a] (Ac-[4Abz]VPD-aldehyde), the values for the IC50 in experiment [1] and in experiment [3] were below 2500 nM and above 2000 nM, respectively. Also, the Ki was 10 to 1000 nM in experiment [2] and below 10 nM in experiment [2] (setting [4]).
With `COc1ccc(C(=O)N[C@H](C(=O)N2CCC[C@H]2C(=O)N[C@H](C=O)CC(=O)O)C(C)C)cc1OCc1ccccc1` [Example 5aa], the IC50 was below 2500 nM in experiment [1] and 500 to 1000 nM in experiment [3]. In addition, the Ki in experiment [2] and in experiment [2] (setting [4]) was below 10 nM in each case.
For `CC(C)[C@H](NC(=O)Cc1ccccc1OCc1ccccc1)C(=O)N1CCC[C@H]1C(=O)N[C@H](C=O)CC(=O)O` [Example 5ab], the IC50 in experiment [1] lay in the range of 2500 to 7500 nM; in experiment [3], 500 to 1000 nM. The Ki in experiment [2] and in experiment [2] (setting [4]) was 10 to 1000 nM each time.
`COc1c(C)cc(C(=O)N[C@H](C(=O)N2CCC[C@H]2C(=O)N[C@H](C=O)CC(=O)O)C(C)C)cc1C` [Example 5ac]: the IC50 was below 2500 nM in experiment [1] and below 500 nM in experiment [3]. The Ki in experiment [2] and in experiment [2] (setting [4]) was below 10 nM each time.
As to `CC(C)[C@H](NC(=O)c1ccc2ncccc2c1)C(=O)N1CCC[C@H]1C(=O)N[C@H](C=O)CC(=O)O` [Example 5ad], the IC50 was below 2500 nM in experiment [1] and below 500 nM in experiment [3]. Moreover, the Ki in experiment [2] and in experiment [2] (setting [4]) was below 10 nM in each case.
On to `COc1ccc2cc([C@H](C)C(=O)N[C@H](C(=O)N3CCC[C@H]3C(=O)N[C@H](C=O)CC(=O)O)C(C)C)ccc2c1` [Example 5ag], for which the figures for the IC50 in experiment [1] and in experiment [3] were 2500 to 7500 nM and 500 to 1000 nM, respectively. The Ki in experiment [2] and in experiment [2] (setting [4]) was below 10 nM throughout.
As to `CC(C)[C@H](NC(=O)c1ccc2c(c1)S(=O)(=O)c1ccccc1C2=O)C(=O)N1CCC[C@H]1C(=O)N[C@H](C=O)CC(=O)O` [Example 5ai], the IC50 in experiment [1] was above 7500 nM; in experiment [3], below 500 nM. Also, the Ki in experiment [2] and in experiment [2] (setting [4]) was below 10 nM in each case.
Turning to `CC(C(=O)N[C@H](C(=O)N1CCC[C@H]1C(=O)N[C@H](C=O)CC(=O)O)C(C)C)c1ccc(C(=O)c2cccs2)cc1` (some centres unmarked) [Example 5aj], the half-maximal inhibitory concentration (IC50) in experiment [1] was above 7500 nM; in experiment [3], 500 to 1000 nM. Besides, the Ki in experiment [2] and in experiment [2] (setting [4]) was 10 to 1000 nM in each case.
On to `COc1cc(CC(=O)N[C@H](C(=O)N2CCC[C@H]2C(=O)N[C@H](C=O)CC(=O)O)C(C)C)ccc1OCc1ccccc1` [Example 5ak], for which the IC50 is above 7500 nM in experiment [1] and 500 to 1000 nM in experiment [3]. The Ki in experiment [2] and in experiment [2] (setting [4]) was 10 to 1000 nM each time.
For the molecule `CC(C)[C@H](NC(=O)c1cccc(Oc2ccccc2)c1)C(=O)N1CCC[C@H]1C(=O)N[C@H](C=O)CC(=O)O` [Example 5ay], the IC50 in experiment [1] lay within 2500 to 7500 nM; in experiment [3], 500 to 1000 nM. The molecule further yielded a Ki in experiment [2] (setting [4]) below 10 nM.
As to `CC(C)[C@H](NC(=O)c1cccc(C(=O)c2ccccc2)c1)C(=O)N1CCC[C@H]1C(=O)N[C@H](C=O)CC(=O)O` [Example 5az], the IC50 in experiment [1] is below 2500 nM; in experiment [3], 500 to 1000 nM. The molecule further came in with a Ki in experiment [2] (setting [4]) below 10 nM.
In the same order, the values of `CC(C)[C@H](NC(=O)c1cc2ccccc2[nH]1)C(=O)N1CCC[C@H]1C(=O)N[C@H](C=O)CC(=O)O` [Example 5b] are below 2500 nM, 500 to 1000 nM and below 10 nM.
In the same order, the values of `CC(C)[C@H](NC(=O)c1ccc2c(c1)C(=O)c1ccccc1-2)C(=O)N1CCC[C@H]1C(=O)N[C@H](C=O)CC(=O)O` [Example 5bb] are 2500 to 7500 nM, 500 to 1000 nM and below 10 nM.
Regarding `CC(C)[C@H](NC(=O)c1cccc2ccccc12)C(=O)N1CCC[C@H]1C(=O)N[C@H](C=O)CC(=O)O` [Example 5d], the IC50 was in the range of 2500 to 7500 nM in experiment [1] and 500 to 1000 nM in experiment [3]. Also, the Ki in experiment [2] (setting [4]) was below 10 nM.
With `CC(C)[C@H](NC(=O)c1ccccc1)C(=O)N1CCC[C@H]1C(=O)N[C@H](C=O)CC(=O)O` [Example 5e] (Bz-Val-Pro-Asp-aldehyde), the IC50 in experiment [1] is below 2500 nM; in experiment [3], 500 to 1000 nM. In experiment [2] (setting [4]), the Ki was in the range of 10 to 1000 nM.
As to `CC(C)[C@H](NC(=O)c1ccc(O)cc1)C(=O)N1CCC[C@H]1C(=O)N[C@H](C=O)CC(=O)O` [Example 5f], the half-inhibitory concentration (IC50) in experiment [1] was in the range of 2500 to 7500 nM; in experiment [3], 1000 to 2000 nM. The Ki in experiment [2] (setting [4]) was in the range of 10 to 1000 nM.
As to `CC(C)[C@H](NC(=O)c1cccc2c1-c1ccccc1C2)C(=O)N1CCC[C@H]1C(=O)N[C@H](C=O)CC(=O)O` [Example 5i], the values for the IC50 in experiment [1] and in experiment [3] were above 7500 nM and 1000 to 2000 nM, respectively. Moreover, the Ki in experiment [2] and in experiment [2] (setting [4]) was below 10 nM throughout.
Consider `CC(C)[C@H](NC(=O)c1cccc2c1Cc1ccccc1-2)C(=O)N1CCC[C@H]1C(=O)N[C@H](C=O)CC(=O)O` [Example 5j], for which the IC50 was above 7500 nM in experiment [1] and above 2000 nM in experiment [3]. Further, the Ki in experiment [2] and in experiment [2] (setting [4]) was below 10 nM in each case.
